The values that follow are results of earlier work, collected in patent publication US20240408101A1, “COMPOSITION AND METHODS OF TREATMENT USING […] - ENHANCED SUPPLEMENTATION” (Xygenyx Inc., priority 2023, published 2024).

Where a SMILES comes first, the peptide text is derived from it.

For data set [1] the following is noted: mice.
The subject of data set [2] is skin. Conditions: as penetration enhancer for transdermal drugs.
Data set [3] relates to wide dynamic range neurons in the ventroposterolateral nucleus of the thalamus.
For data set [4] the following is noted: in vivo.
The test system of data set [5] is skin. To be noted: topical application, concentrations 0.5-5%.
The test system of data set [6] is skin. Conditions: topical formulations, within four weeks of treatment.
The conditions of data set [7]: in combination with 10-20 mg β-carotene and 400-500 mg vitamin C, doses around 400-500 IU.
The conditions of data set [8]: dietary supplementation, doses up to 400 IU/day.
A further data set concerns F2-isoprostane. Conditions: large doses of 1600-3200 IU/day.
The conditions of data set [9]: dietary supplementation, doses up to 400 IU/day, controlled trials.
The conditions of data set [10]: compared to α-tocopherol taken as 1.0.
For data set [11] the following is noted: even when dietary intake occurs in equal portions.
The conditions of data set [12]: in vivo. This is another data set of the same source.

`CC(CN)C(=O)O` [L-BAIBA, L-beta-aminoisobutyric acid]: the tolerated dose in data set [1] is reported as 10-100 mg/kg of bodyweight.

For `CC(C)[C@@H]1CC[C@@H](C)C[C@H]1O` [Menthol], the “increase of transdermal drug uptake, factor” value in the data set on skin [2] is reported as at least 10.

For the compound `CCCCCc1cc(O)c2c(c1)OC(C)(C)C1CCC(C)=CC21` (centres unmarked) [THC, Δ-9-tetrahydrocannabinol], the “analgesic power relative to morphine” value in [3] is on record as “ten times more powerful than morphine”.

As for `CCNC(=O)CC[C@H](N)C(=O)O` [Theanine], in [4], the “dose considered safe and well-tolerated” value is “up to 400 mg per day”.

Turning to `C=CCCCCCCCCC(=O)N[C@@H](Cc1ccccc1)C(=O)O` [UP, Undecylenoyl phenylalanine], the “time to skin lightening effects” value with skin [5] is listed as at least 7 days.

Consider `CC12CCC(CC1)C(C)(C)O2` [eucalyptol, 1,8-epoxy-p-menthane], for which, in the data set with skin [2], the “increase of transdermal drug uptake, factor” value was “more than 10”.

Take `CC[C@H](C)[C@H](NC(=O)[C@H](CC(=O)O)NC(=O)[C@@H](N)CCCCN)C(=O)N[C@@H](CCCNC(N)=O)C(N)=O` [tripeptide-10 citrulline, Tripeptide-10 citrulline] (HELM PEPTIDE1{K.D.I.[Cit].[am]}$$$$V2.0): in the data set with skin [6], the improvement of suppleness is at most 54%.

Take `Cc1c(C)c2c(c(C)c1O)CC[C@@](C)(CCC[C@H](C)CCC[C@H](C)CCCC(C)C)O2` [α-tocopherol]: in data set [7], the “reduction in the development of age-related cataracts” value is 23%. Further, the “reduction of risk of coronary disease” value in [8] is “up to 34%”. Besides, in the data set with F2-isoprostane, the “blood plasma concentration of F2-isoprostane” value is recorded as “significantly lower”. For the same compound, in data set [9], the “reduction of risk of developing neurodegenerative diseases” value is on record as at most 24%. The relative biological activity in [10] is 1.0.

Consider `Cc1cc(O)c(C)c2c1O[C@](C)(CCC[C@H](C)CCC[C@H](C)CCCC(C)C)CC2` [β-tocopherol], for which the relative biological activity in [10] is 0.5.

Turning to `Cc1c(O)cc2c(c1C)O[C@](C)(CCC[C@H](C)CCC[C@H](C)CCCC(C)C)CC2` [γ-tocopherol], in data set [11], the “concentration in vivo relative to α-tocopherol” value is reported as “roughly 10%”. In addition, in data set [10], the relative biological activity was 0.1.

Take `Cc1cc(O)cc2c1O[C@](C)(CCC[C@H](C)CCC[C@H](C)CCCC(C)C)CC2` [δ-tocopherol]: the relative biological activity in [10] was 0.03.

Turning to “HGH: hormone comprising a peptide chain synthesized in the pituitary gland”, the biological half-life in data set [12] was 10-20 minutes.
